Measurements taken from patent US20090004185A1, “AMINO-SUBSTITUTED QUINAZOLINE DERIVATIVES AS INHIBITORS OF BETA-CATENIN/TCF-4 PATHWAY AND CANCER TREATMENT AGENTS” (WYETH, priority 2007, published 2009).

Key:
β-catenin/Tcf-4 = assay: cells; assay type: cell-based; conditions: 24 hours of incubation with compound, ratio Firefly/Renilla luciferase
Procedure, shortened: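 SW480-derived lines with integrated reporters (Tcf-4-driven firefly luciferase; SV40 firefly as specificity control; SV40 Renilla for cell number/toxicity), treated 24 hours with titrated compounds, final 0.316% DMSO. Dual-luciferase read-out; firefly/Renilla ratio as % of control, duplicate plates, IC50 (nM) from curve fit.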

SV40-Luc = SV40-Luc control luciferase reporter assay, SV 5A8 cell line (SV40-Luc and SV40-R-Luc), control for non-specific inhibitors; assay type: cell-based, human; conditions: SV 5A8 cells derived from SW480, 24 hours of incubation with compound, ratio Firefly/Renilla luciferase
Procedure, shortened: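 Stable SW480 reporter clones are exposed to compound dilutions for 24 h at 0.316% DMSO. Firefly signal, Tcf-4- or SV40-driven, is divided by SV40-Renilla signal, and IC50 is derived from this ratio relative to control.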

[1] = Homo sapiens, SW480, 24 h, Tcf 33.13 cells derived from SW480
[2] = Homo sapiens, Tcf22C11, 24 h, Tcf 22C11 cells derived from SW480

Structure (SMILES)	IC50 (β-catenin/Tcf-4; [1]) [nM]	IC50 (β-catenin/Tcf-4; [2]) [nM]	IC50 (SV40-Luc; Homo sapiens, SV5A8, 24 h) [nM]	IC50 (β-catenin/Tcf-4; Tcf 22C11 cells derived from SW480) [nM]	IC50 (β-catenin/Tcf-4; Tcf 33.13 cells derived from SW480) [nM]	IC50 (SV40-Luc) [nM]
Cc1ccc2c(NCc3ccc(NC(=O)c4ccc(F)cc4)cc3)nc(N(C)CCc3ccccn3)nc2c1 [Example 222, 4-fluoro-N-{4-[({7-methyl-2-[methyl(2-pyridin-2-ylethyl)amino]quinazolin-4-yl}amino)methyl]phenyl}benzamide]	650	918	> 7880			
Cc1ccc2c(NCc3ccc(NC(=O)C4CCN(Cc5ccncc5)CC4)cc3)nc(N(C)C)nc2c1 [Example 257, N-[4-({[2-(dimethylamino)-7-methylquinazolin-4-yl]amino}methyl)phenyl]-1-(pyridin-4-ylmethyl)piperidine-4-carboxamide]	906	1190	> 8080			
COC[C@@H]1CCCN1c1nc(NCc2ccc(NC(=O)c3ccc(F)cc3)cc2)c2ccc(C)cc2n1 [Example 205, 4-fluoro-N-{4-[({2-[(2S)-2-(methoxymethyl)pyrrolidin-1-yl]-7-methylquinazolin-4-yl}amino)methyl]phenyl}benzamide]	3150	> 2500	> 10000			
CN(C)c1ccc(-c2ccc3nc(N(C)C)nc(NCc4ccc(NC(=O)c5ccc(F)cc5)cc4)c3c2)cn1 [Example 59, N-{4-[({2-(dimethylamino)-6-[6-(dimethylamino)pyridin-3-yl]quinazolin-4-yl}amino)methyl]phenyl}-4-fluorobenzamide]	453	229	> 2330			
CN(C)c1nc(NCc2ccc(NC(=O)c3ccc(F)cc3)cc2)c2ccc(C3CC3)cc2n1 [Example 104, N-[4-({[7-cyclopropyl-2-(dimethylamino)quinazolin-4-yl]amino}methyl)phenyl]-4-fluorobenzamide]	666	1010	> 2540			
Cc1ccc2c(NCc3ccc(NC(=O)c4ccc(C)nc4)cc3)nc(N(C)C)nc2c1 [Example 241, N-[4-({[2-(dimethylamino)-7-methylquinazolin-4-yl]amino}methyl)phenyl]-6-methylnicotinamide]	813	1030	> 23400			
O=C(Nc1ccc(CNc2nc(NC3CCC3)nc3ccc(C(F)(F)F)cc23)cc1)C1CCN(Cc2ccc(F)cc2)CC1 [Example 159, N-[4-({[2-(cyclobutylamino)-6-(trifluoromethyl)quinazolin-4-yl]amino}methyl)phenyl]-1-(4-fluorobenzyl)piperidine-4-carboxamide]	> 8240	> 8240	> 8240			
Cc1ccc2c(NCc3ccc(NC(=O)Nc4ccc(Br)cc4)cc3)nc(N(C)C)nc2c1 [Example 179, N-(4-bromophenyl)-N′-[4-({[2-(dimethylamino)-7-methylquinazolin-4-yl]amino}methyl)phenyl]urea]	924	538	> 4950			
C=Cc1ccc2c(N[C@@H](C)c3ccc(NC(=O)c4ccc(Cl)nc4)cc3)nc(N(C)C)nc2c1 [Example 106, 6-chloro-N-[4-((1S)-1-{[2-(dimethylamino)-7-vinylquinazolin-4-yl]amino}ethyl)phenyl]nicotinamide]	393	551	> 9820			
Cc1ccc2c(NCc3ccc(NC(=O)C4CCN(Cc5ccccc5)CC4)cc3)nc(N(C)C)nc2c1 [Example 129, 1-benzyl-N-[4-({[2-(dimethylamino)-7-methylquinazolin-4-yl]amino}methyl)phenyl]piperidine-4-carboxamide]	754	738	> 9170			
Cc1ccc2nc(N(C)C)nc(NCc3ccc(NC(=O)c4ccc(F)c(F)c4)cc3)c2c1 [Example 36, N-[4-({[2-(dimethylamino)-6-methylquinazolin-4-yl]amino}methyl)phenyl]-3,4-difluorobenzamide]	866	1170	> 5590			
COCCN(C)c1nc(NCc2ccc(NC(=O)c3ccc(F)cc3)cc2)c2ccc(C)cc2n1 [Example 220, 4-fluoro-N-{4-[({2-[(2-methoxyethyl)(methyl)amino]-7-methylquinazolin-4-yl}amino)methyl]phenyl}benzamide]	682	1140	> 8510			
CN(C)c1nc(NCc2ccc(NC(=O)c3ccc(Cl)nc3)cc2)c2cc(I)ccc2n1 [Example 72, 6-chloro-N-[4-({[2-(dimethylamino)-6-iodoquinazolin-4-yl]amino}methyl)phenyl]nicotinamide]	456	534	> 4470			
Cc1ccc2c(NCc3ccc(NC(=O)C4CCN(CC(C)C)CC4)cc3)nc(N(C)C)nc2c1 [Example 244, N-[4-({[2-(dimethylamino)-7-methylquinazolin-4-yl]amino}methyl)phenyl]-1-isobutylpiperidine-4-carboxamide]	962	650	> 10500			
O=C(Nc1ccc(CNc2nc(N3CCCC3)nc3ccccc23)cc1)c1ccc(F)cc1 [Example 119, 4-fluoro-N-(4-{[(2-pyrrolidin-1-ylquinazolin-4-yl)amino]methyl}phenyl)benzamide]	1270	1740	> 2830			
Cc1ccc2c(N[C@@H](C)c3ccc(NC(=O)c4ccc(F)cc4)cc3)nc(N(C)C)nc2c1 [Example 271, (S)—N-(4-(1-(2-(dimethylamino)-7-methylquinazolin-4-ylamino)ethyl)phenyl)-4-fluorobenzamide]	1080	970	> 5640			
Cc1ccc2c(NCc3ccc(NC(=O)c4ccc(F)cc4)cc3)nc(N3CCCCC3CCO)nc2c1 (stereo not drawn) [Example 224, 4-fluoro-N-{4-[({2-[2-(2-hydroxyethyl)piperidin-1-yl]-7-methylquinazolin-4-yl}amino)methyl]phenyl}benzamide]	781	1000	> 9740			
Cc1ccc2c(NCc3ccc(NC(=O)C4CCN(Cc5ccccc5)CC4)cc3)nc(N(C)CCN(C)C)nc2c1 [Example 144, 1-benzyl-N-{4-[({2-[[2-(dimethylamino)ethyl](methyl)amino]-7-methylquinazolin-4-yl}amino)methyl]phenyl}piperidine-4-carboxamide]	1440	2270	> 8840			
Cc1ccc2c(NCc3ccc(NC(=O)C4CCN(Cc5ccc(Cl)c(F)c5)CC4)cc3)nc(N(C)C)nc2c1 [Example 263, 1-(4-chloro-3-fluorobenzyl)-N-[4-({[2-(dimethylamino)-7-methylquinazolin-4-yl]amino}methyl)phenyl]piperidine-4-carboxamide]	410	422	> 1970			
C=Cc1cccc(-c2ccc3nc(N(C)C)nc(NCc4ccc(C(=O)Nc5ccc(F)cc5)cc4)c3c2)c1 [Example 172]				397	308	> 2830
CNc1nc(NCc2ccc(NC(=O)c3ccc(Cl)cc3)cc2)c2cc(C)cc(C)c2n1 [Example 29, 4-chloro-N-[4-({[6,8-dimethyl-2-(methylamino)quinazolin-4-yl]amino}methyl)phenyl]benzamide]	756	988	> 2800			
Cc1ccc2c(NCc3ccc(NC(=O)C4CCN(Cc5ccc(F)cc5)CC4)cc3)nc(N(C)C)nc2c1 [Example 251, N-[4-({[2-(dimethylamino)-7-methylquinazolin-4-yl]amino}methyl)phenyl]-1-(4-fluorobenzyl)piperidine-4-carboxamide]	215	262	> 8340			
CC(C)c1ccc2c(NCc3ccc(NC(=O)C4CCN(Cc5ccccc5)CC4)cc3)nc(N(C)C)nc2c1 [Example 63, 1-benzyl-N-[4-({[2-(dimethylamino)-7-isopropylquinazolin-4-yl]amino}methyl)phenyl]piperidine-4-carboxamide]	1190	2150	> 8720			
Cc1ccc2nc(N3CCCCC3)nc(NCc3ccc(NC(=O)c4ccc(F)cc4)cc3)c2c1 [Example 42, 4-fluoro-N-(4-{[(6-methyl-2-piperidin-1-ylquinazolin-4-yl)amino]methyl}phenyl)benzamide]	2940	9250	> 10600			
C/C=C/c1ccc2c(N[C@@H](C)c3ccc(NC(=O)c4ccc(Cl)nc4)cc3)nc(N(C)C)nc2c1 [Example 107, 6-chloro-N-{4-[(1S)-1-({2-(dimethylamino)-7-[(1E)-prop-1-en-1-yl]quinazolin-4-yl}amino)ethyl]phenyl}nicotinamide]	336	414	> 4780			
CNc1nc(NCc2ccc(NC(=O)c3ccc(Cl)nc3)cc2)c2cc(OC)c(OC)cc2n1 [Example 9, 6-chloro-N-[4-({[6,7-dimethoxy-2-(methylamino)quinazolin-4-yl]amino}methyl)phenyl]nicotinamide]	1070	888	1520			
CCN(CC)c1nc(NCc2ccc(NC(=O)C3CCN(Cc4ccc(F)cc4)CC3)cc2)c2cc(C(F)(F)F)ccc2n1 [Example 158, N-[4-({[2-(diethylamino)-6-(trifluoromethyl)quinazolin-4-yl]amino}methyl)phenyl]-1-(4-fluorobenzyl)piperidine-4-carboxamide]	3850	> 4110	> 8210			
